Data from US20190055283A1, “AZA-PEPTIDE ALDEHYDES AND KETONES” (OHIO STATE INNOVATION FOUNDATION, priority 2016, published 2019).

target: T1, caspase-3 (Homo sapiens, UniProt P42574); experiment: Caspase 3 inhibition kinetic assay; assay type: biochemical; conditions: not given
T1 construct: Professor Guy Salvesen, Burnham Institute (gift, not a purchase)
T1 sequence (P42574 29-175 limits assumed): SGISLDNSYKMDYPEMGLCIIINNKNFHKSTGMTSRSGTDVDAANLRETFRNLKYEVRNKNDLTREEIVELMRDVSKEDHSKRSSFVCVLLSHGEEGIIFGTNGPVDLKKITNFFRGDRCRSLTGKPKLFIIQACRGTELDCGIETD
Protocol: (§1) Generally, for the 20S proteasome the enzymatic hydrolysis of fluorogenic substrate Suc-LLVY-AMC by the 20S proteasome is monitored continuously for chymotrypsin-like (CT-L) activity at λexc=360, λem=460 nm for 45 min at 30° C. under standard assay conditions (Assay buffer: pH 7.5, 20 mM Tris, 0.02% w/v SDS, 1 mM EDTA, 2% v/v DMSO). Caspase activities are measured in 100 mM HEPES, 10% sucrose, 0.1% CHAPS, 10 mM DTT, pH 7.5 and 25° C.^21 Legumain activity is measured in 0.1 M citrate-phosphate buffer at pH 6.8 containing 4 mM DTT with Cbz-AAN-AMC as the substrate^9b. Activity of the MALT1 active fragment (aa325-769) is detected by cleavage of the tetra-peptide substrate LRSR-AMC (7-amino-4-methylcoumarin) that results in fluorescence emission when AMC is released. IC50 values are determined for the new compounds by dose-dependent inhibition. In parallel, well-characterized MALT1 inhibitors (e.g. Z—VRPR-FMIK, mepazine, MI-2) are used as reference compounds. Cathepsin B activity is performed in 0.1 M phosphate, 1.25 mM EDTA, 0.01% Brij, pH 6.0. Papain activity is measured in 10 mM DTT, 50 mM phosphate, pH 6.2. Trypsin activity is performed in 0.046 M Tris/HCl buffer at pH 8.1 with 0.0115 M CaCl2.
(§2) Results from kinetic assays for compounds tested against the 20S proteasome, caspase-3, and legumain are shown in Table 4, Table 5, and Table 6, respectively.

Structure (SMILES) | IC50
CC(=O)C(=O)N(CC(=O)O)NC(=O)[C@@H](NC(=O)[C@H](CCC(=O)O)NC(=O)[C@H](CC(=O)O)NC(=O)OCc1ccccc1)C(C)C [Z-Asp-Glu-Val-AAsp-COMe, (5S,8S,11S)-8-(2-carboxyethyl)-5-(carboxymethyl)-11-isopropyl-3,6,9,12-tetraoxo-14-(2-oxopropanoyl)-1-phenyl-2-oxa-4,7,10,13,14-pentaazahexadecan-16-oic acid] | 0.055 µM
CC(C)[C@H](NC(=O)[C@H](CCC(=O)O)NC(=O)[C@H](CC(=O)O)NC(=O)OCc1ccccc1)C(=O)N[C@H](C=O)CC(=O)O [Z-Asp-Glu-Val-Asp-COH, reference compound] | 0.0045 µM

target: legumain; experiment: Legumain inhibition kinetic assay; assay type: biochemical; conditions: not given
Protocol: as §1, §2

Structure (SMILES) | Ki (μM)
CC(=O)C(=O)N(CC(N)=O)NC(=O)[C@H](C)NC(=O)[C@H](C)NC(=O)OCc1ccccc1 [Z-Ala-Ala-AAsn-COMe, Benzyl ((S)-1-(((S)-1-(2-(2-amino-2-oxoethyl)-2-(2-oxopropanoyl)hydrazinyl)-1-oxopropan-2-yl)amino)-1-oxopropan-2-yl)carbamate] | Weak
CCOC(=O)C(=O)N(CC(N)=O)NC(=O)[C@H](C)NC(=O)[C@H](C)NC(=O)OCc1ccccc1 [Z-Ala-Ala-AAsn-COOEt, Ethyl 2-(1-(2-amino-2-oxoethyl)-2-(((benzyloxy)carbonyl)-L-alanyl-L-alanyl)hydrazinyl)-2-oxoacetate] | Weak
C[C@H](NC(=O)OCc1ccccc1)C(=O)N[C@@H](C)C(=O)NN(CC(N)=O)C(=O)C(=O)Cc1ccccc1 [Z-Ala-Ala-AAsn-COBn, Benzyl((S)-1-(((S)-1-(2-(2-amino-2-oxoethyl)-2-(2-oxo-3-phenylpropanoyl) hydrazinyl)-1-oxopropan-2-yl)amino)-1-oxopropan-2-yl)carbamate] | Weak

target: T2, human 20S proteasome (Homo sapiens, UniProt P20618+P28074); experiment: Kinetic assay of 20S proteasome chymotryptic activity (Suc-LLVY-AMC); assay type: biochemical; conditions: Suc-LLVY-AMC substrate, pH 7.8, 37° C., competitive inhibition model
T2 construct: purchased
Protocol: Kinetic assays were performed on a fluorescent 96-well plate reader with human 20S proteasome. Chymotryptic activity was measured in 20 mM HEPES, 0.5 mM EDTA, 0.037% SDS, pH 7.8 at 37° C., using 0-100 μM Suc-LLVY-AMC as the fluorogenic substrate, and […] 4.42×10^−4 mg/100 μL enzyme.
Triplicates of velocities (fluorescence vs time) were obtained at various concentrations of substrate ([…]) and aza-peptide inhibitor (0, 25, 50, 100 μM) then converted to specific activity using Lambert-Beer's law and enzyme concentration.
Enzyme specific activities were fit to a competitive inhibition model using GraphPad Prism software for nonlinear fitting.

Structure (SMILES) | Ki (μM) | Ki
CC(=O)C(=O)N(C)NC(=O)[C@H](CC(C)C)NC(=O)[C@H](CC(C)C)NC(=O)OCc1ccccc1 [Z-Leu-Leu-AAla-COMe, Benzyl ((S)-4-methyl-1-(((S)-4-methyl-1-(2-methyl-2-(2-oxopropanoyl)hydrazinyl)-1-oxopentan-2-yl)amino)-1-oxopentan-2-yl)carbamate] |  | 73 µM
CC(C)C[C@H](NC(=O)OCc1ccccc1)C(=O)N[C@@H](CC(C)C)C(=O)NN(C)C(=O)C=O [Z-Leu-Leu-AAla-COH, Benzyl ((S)-4-methyl-1-(((S)-4-methyl-1-(2-methyl-2-(2-oxoacetyl)hydrazinyl)-1-oxopentan-2-yl)amino)-1-oxopentan-2-yl)carbamate] |  | 44 µM

The remaining lines, values ahead:

Ki (μM) | Ki | Structure (SMILES)
weak |  | CCOC(=O)C(=O)N(CC(C)C)NC(=O)[C@H](CC(C)C)NC(=O)[C@H](CC(C)C)NC(=O)OCc1ccccc1 [Z-Leu-Leu-ALeu-COOEt, Ethyl 2-(2-(((benzyloxy)carbonyl)-L-leucyl-L-leucyl)-1-isobutylhydrazinyl)-2-oxoacetate]
 | 35 µM | CC(C)C[C@H](NC(=O)OCc1ccccc1)C(=O)N[C@@H](CC(C)C)C(=O)NNC(=O)C=O [Z-Leu-Leu-AGly-COH, Benzyl ((S)-4-methyl-1-(((S)-4-methyl-1-oxo-1-(2-(2-oxoacetyl)hydrazinyl)pentan-2-yl)amino)-1-oxopentan-2-yl)carbamate]
 | 24 µM | CC(C)C[C@H](NC(=O)OCc1ccccc1)C(=O)N[C@@H](CC(C)C)C(=O)NN(CC(C)C)C(=O)C=O [Z-Leu-Leu-ALeu-COH, Benzyl ((S)-1-(((S)-1-(2-isobutyl-2-(2-oxoacetyl)hydrazinyl)-4-methyl-1-oxopentan-2-yl)amino)-4-methyl-1-oxopentan-2-yl)carbamate]
 | 47 µM | CC(=O)C(=O)N(CC(C)C)NC(=O)[C@H](Cc1ccccc1)NC(=O)[C@H](CC(C)C)NC(=O)OCc1ccccc1 [Z-Leu-Phe-ALeu-COMe, Benzyl((S)-1-(((S)-1-(2-isobutyl-2-(2-oxopropanoyl)hydrazinyl)-1-oxo-3-phenylpropan-2-yl)amino)-4-methyl-1-oxopentan-2-yl)carbamate]
 | 29 µM | CC(=O)C(=O)NNC(=O)[C@H](CC(C)C)NC(=O)[C@H](CC(C)C)NC(=O)OCc1ccccc1 [Z-Leu-Leu-AGly-COMe, Benzyl((S)-4-methyl-1-(((S)-4-methyl-1-oxo-1-(2-(2-oxopropanoyl)hydrazinyl)pentan-2-yl)amino)-1-oxopentan-2-yl)carbamate]
 | 55 µM | CC(C)C[C@H](NC(=O)OCc1ccccc1)C(=O)N[C@@H](Cc1ccccc1)C(=O)NN(CC(C)C)C(=O)C(=O)Cc1ccccc1 [Z-Leu-Phe-ALeu-COBn, Benzyl ((S)-1-(((S)-1-(2-isobutyl-2-(2-oxo-3-phenylpropanoyl)hydrazinyl)-1-oxo-3-phenylpropan-2-yl)amino)-4-methyl-1-oxopentan-2-yl)carbamate]
 | 27 µM | CC(=O)C(=O)N(CC(C)C)NC(=O)[C@H](CC(C)C)NC(=O)[C@H](CC(C)C)NC(=O)OCc1ccccc1 [Z-Leu-Leu-ALeu-COMe, Benzyl((S)-1-(((S)-1-(2-isobutyl-2-(2-oxopropanoyl)hydrazinyl)-4-methyl-1-oxopentan-2-yl)amino)-4-methyl-1-oxopentan-2-yl)carbamate]
 | 81 µM | CC(C)C[C@H](NC(=O)OCc1ccccc1)C(=O)N[C@@H](CC(C)C)C(=O)NN(CC(C)C)C(=O)C(=O)Cc1ccccc1 [Z-Leu-Leu-ALeu-COBn, Benzyl ((S)-1-(((S)-1-(2-isobutyl-2-(2-oxo-3-phenylpropanoyl)hydrazinyl)-4-methyl-1-oxopentan-2-yl)amino)-4-methyl-1-oxopentan-2-yl)carbamate]
